According to US20250136559A1, “SMO MODULATOR COMPOUNDS” (OMASS THERAPEUTICS LIMITED, priority 2022, published 2025):

Experiments:
Assay type in all cases: cell-based
[1] = target: T1, mouse SMO^W535L (Mus musculus, UniProt P56726, W539L); test: Mouse assay: Gli1 qPCR in MEF cells stably expressing mouse SMO W535L; details: mSHh-treated, 24 hours; for IC50: Gli1 inhibition by qPCR, read-out: Mouse W535L pIC50 (converted); for Mouse W535L % Inh: percentage Gli1 inhibition
T1 construct: expressed in transfected cells
T1 sequence (P56726 33-793 W539L): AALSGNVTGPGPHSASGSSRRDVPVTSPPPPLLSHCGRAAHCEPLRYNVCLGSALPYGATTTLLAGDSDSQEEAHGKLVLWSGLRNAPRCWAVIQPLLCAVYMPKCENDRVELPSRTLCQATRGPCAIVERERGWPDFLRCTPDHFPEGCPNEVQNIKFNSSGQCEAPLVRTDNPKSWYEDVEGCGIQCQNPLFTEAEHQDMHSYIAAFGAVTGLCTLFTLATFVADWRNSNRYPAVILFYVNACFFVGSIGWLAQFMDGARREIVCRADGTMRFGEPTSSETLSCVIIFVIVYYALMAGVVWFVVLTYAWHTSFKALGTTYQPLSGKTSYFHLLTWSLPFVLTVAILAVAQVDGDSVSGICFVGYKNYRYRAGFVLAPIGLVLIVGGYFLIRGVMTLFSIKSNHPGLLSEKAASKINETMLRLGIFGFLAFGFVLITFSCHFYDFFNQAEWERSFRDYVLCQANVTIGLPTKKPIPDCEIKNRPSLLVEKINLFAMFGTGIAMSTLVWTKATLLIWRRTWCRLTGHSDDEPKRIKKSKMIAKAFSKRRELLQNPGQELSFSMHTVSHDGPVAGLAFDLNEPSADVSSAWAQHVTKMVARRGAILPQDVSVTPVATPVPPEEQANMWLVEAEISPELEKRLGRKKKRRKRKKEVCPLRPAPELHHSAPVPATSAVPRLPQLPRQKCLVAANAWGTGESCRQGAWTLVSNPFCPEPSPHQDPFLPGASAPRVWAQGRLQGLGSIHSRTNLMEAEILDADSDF
Experimental: (§1) Cell culture. All materials were purchased from Sigma-Aldrich, unless otherwise stated.
(§2) Compound treatment. […] After 1 hour incubation, cells were treated with assay medium containing mSHh prepared at 2.5× of final assay concentrations specified in the text and incubated for a further 24 hours at 37′C in a humidified 95% air/5% CO2 atmosphere prior to qPCR analysis.
(§3) Cell lysis and one-step qPCR. The Cells-to-CT™ 1-Step TaqMan® Kit was used in conjunction with TaqMan primer-probe assays for the detection of Gli1 (FAM, Mm00494654_m1) and Gusb (VIC, Mm01197698_m1) genes (all purchased from Life Technologies). Following 24 hours cell treatment, spent medium was removed and cells were washed with PBS before the application of lysis and stop solution as per manufacturer's instructions. The qPCR reactions were run in a 384-well PCR plate using master mix prepared according to manufacturer's instructions and cell lysate samples from treatment wells. Real-time PCR amplification was detected using the Bio-Rad CFX384 Touch PCR system. Four experimental replicates (two cell replicates and two qPCR replicates) were performed for each compound concentration tested. Real-time data were analysed using the CFX Maestro software (Bio-Rad) and obtained expression values were converted to percentage Gli1 inhibition by normalising to the average Gli1 expression of mSHh-treated control samples.

[2] = target: T2, mouse SMO^WT (Mus musculus, UniProt P56726); test: Mouse assay: Gli1 qPCR in MEF cells stably expressing mouse SMO WT; details: mSHh-treated, 24 hours; for IC50: Gli1 inhibition by qPCR, read-out: Mouse WT pIC50 (converted); for Mouse WT % Inh: percentage Gli1 inhibition
T2 construct: expressed in transfected cells
T2 sequence (P56726 33-793): as the sequence (P56726 33-793 W539L) above, with L507W counted along it
Experimental: as §1, §2, §3

[3] = target: T3, mouse SMO^D473H (Mus musculus, UniProt P56726, D477H); test: Mouse assay: Gli1 qPCR in MEF cells stably expressing mouse SMO D473H; details: mSHh-treated, 24 hours; for IC50: Gli1 inhibition by qPCR, read-out: Mouse D473H pIC50 (converted); for Mouse D473H % Inh: percentage Gli1 inhibition
T3 construct: expressed in transfected cells
T3 sequence (P56726 33-793 D477H): as the sequence (P56726 33-793 W539L) above, with D445H, L507W counted along it
Experimental: as §1, §2, §3

IC50 [1] [nM]	Mouse W535L % Inh [1] [%]	IC50 [2] [nM]	Mouse WT % Inh [2] [%]	IC50 [3] [nM]	Mouse D473H % Inh [3] [%]	SMILES
39.8	54.3	6.31	99.4	100	99.0	O=C(Nc1ccc(-c2nc(Cc3ccccc3)n[nH]2)cc1)c1cccc(CN2CCS(=O)(=O)CC2)c1 [Example 3-17, N-[4-(3-Benzyl-1H-1,2,4-triazol-5-yl)phenyl]-3-[(1,1-dioxo-1,4-thiazinan-4-yl)methyl]benzamide]
25.1	66.1	15.8	99.0	251	96.8	O=C(Nc1ccc(-c2nc(Cc3cccc(F)c3)n[nH]2)cc1)c1cccc(CN2CCS(=O)(=O)CC2)c1 [Example 3-20, 3-[(1,1-Dioxo-1,4-thiazinan-4-yl)methy]-N-[4-[3-[(3-fluorophenyl)methyl]-1H-1,2,4-triazol-5-yl]phenyl]benzamide]
126	64.8	25.1	99.1	251	98.9	O=C(Nc1ccc(-c2nc(Cc3cc4c(cc3Cl)OCO4)n[nH]2)cc1)c1cccc(CN2CCS(=O)(=O)CC2)c1 [Example 3-29, N-[4-[3-[(6-Chloro-1,3-benzodioxol-5-yl)methyl]-1H-1,2,4-triazol-5-yl]phenyl]-3-[(1,1-dioxo-1,4-thiazinan-4-yl)methyl]benzamide]
79.4	64.1	31.6	98.6	251	97.2	O=C(Nc1ccc(-c2nc(CCc3ccccc3)n[nH]2)cc1)c1cccc(CN2CCS(=O)(=O)CC2)c1 [Example 3-31, 3-[(1,1-Dioxo-1,4-thiazinan-4-yl)methyl]-N-[4-[3-(2-phenylethyl)-1H-1,2,4-triazol-5-yl]phenyl]benzamide]
316	59.7	79.4	99.4	794	97.7	O=C(Nc1ccc(-c2nc(Cc3ccc4c(c3)OCCO4)n[nH]2)cc1)c1cccc(CN2CCS(=O)(=O)CC2)c1 [Example 3-28, N-[4-[3-(2,3-Dihydro-1,4-benzodioxin-6-ylmethyl)-1H-1,2,4-triazol-5-yl]phenyl]-3-[(1,1-dioxo-1,4-thiazinan-4-yl)methyl]benzamide]
501	62.5	10	98.4	100	98.5	O=C(Nc1ccc(-c2nc(-c3cccc(Cl)c3)n[nH]2)cc1)c1cccc(CN2CCS(=O)(=O)CC2)c1 [Example 3-11, N-[4-[3-(3-Chlorophenyl)-1H-1,2,4-triazol-5-yl]phenyl]-3-[(1,1-dioxo-1,4-thiazinan-4-yl)methyl]benzamide]
251	64.8	15.8	98.3	501	87.1	O=C(Nc1ccc(-c2nc(Cc3cc(Cl)ccc3Cl)n[nH]2)cc1)c1cccc(CN2CCS(=O)(=O)CC2)c1 [Example 3-26, N-[4-[3-[(2,5-Dichlorophenyl)methyl]-1H-1,2,4-triazol-5-yl]phenyl]-3-[(1,1-dioxo-1,4-thiazinan-4-yl)methyl]benzamide]
25.1	58.2	7.94	99.5	316	95.0	O=C(Nc1ccc(-c2nc(Cc3ccc(Cl)cc3)n[nH]2)cc1)c1cccc(CN2CCS(=O)(=O)CC2)c1 [Example 3-23, N-[4-[3-[(4-Chlorophenyl)methyl]-1H-1,2,4-triazol-5-yl]phenyl]-3-[(1,1-dioxo-1,4-thiazinan-4-yl)methyl]benzamide]
501	69.1	79.4	99.0	631	98.4	COc1ccc(Cc2n[nH]c(-c3ccc(NC(=O)c4cccc(CN5CCS(=O)(=O)CC5)c4)cc3)n2)cn1 [Example 3-30, 3-[(1,1-Dioxo-1,4-thiazinan-4-yl)methyl]-N-[4-[5-[(6-methoxypyridin-3-yl)methyl]-1H-1,2,4-triazol-3-yl]phenyl]benzamide]
501	64.1	100	97.5	794	82.3	O=C(Nc1ccc(-c2nc(Cc3ccc(F)cc3)n[nH]2)cc1)c1cccc(CN2CCS(=O)(=O)CC2)c1 [Example 3-21, 3-[(1,1-Dioxo-1,4-thiazinan-4-yl)methy]-N-[4-[3-[(4-fluorophenyl)methyl]-1H-1,2,4-triazol-5-yl]phenyl]benzamide]

Further lines, the molecule ahead of its results:

SMILES	IC50 [1] [nM]	Mouse W535L % Inh [1] [%]	IC50 [2] [nM]	Mouse WT % Inh [2] [%]	IC50 [3] [nM]	Mouse D473H % Inh [3] [%]
O=C(Nc1ccc(-c2nc(C3CC3)n[nH]2)cc1)c1ccc(Cl)c(CN2CCS(=O)(=O)CC2)c1 [Example 2-5, 4-Chloro-N-[4-(5-cyclopropyl-1H-1,2,4-triazol-3-yl)phenyl]-3-[(1,1-dioxo-1,4-thiazinan-4-yl)methyl]benzamide]	100	72.2	15.8	95.5	158	94.4
O=C(Nc1ccc(-c2nc(C3CCCN(Cc4ccccc4)C3)n[nH]2)cc1)c1cccc(CN2CCS(=O)(=O)CC2)c1 (stereo not drawn) [Example 3-9, N-[4-[3-(1-Benzylpiperidin-3-yl)-1H-1,2,4-triazol-5-yl]phenyl]-3-[(1,1-dioxo-1,4-thiazinan-4-yl)methyl]benzamide]	63.1	63.2	31.6	95.1	316	93.8
Cn1nc(-c2ccc(NC(=O)c3ccc(Cl)c(CN4CCS(=O)(=O)CC4)c3)cc2)cc1C1CC1 [Example 4-24, 4-Chloro-N-[4-(5-cyclopropyl-1-methylpyrazol-3-yl)phenyl]-3-[(1,1-dioxo-1,4-thiazinan-4-yl)methyl]benzamide]	10	70.0	0.631	97.9	7.94	98.1
O=C(Nc1ccc(-c2nc(C3CCN(c4ccccc4)C3)n[nH]2)cc1)c1cccc(CN2CCS(=O)(=O)CC2)c1 (stereo not drawn) [Example 3-8, 3-[(1,1-Dioxo-1,4-thiazinan-4-yl)methyl]-N-[4-[3-(1-phenylpyrrolidin-3-yl)-1H-1,2,4-triazol-5-yl]phenyl]benzamide]	100	57.9	20	98.6	158	98.0
O=C(Nc1ccc(-c2noc(Cc3ccc(Cl)cc3)n2)cc1)c1cccc(CN2CCS(=O)(=O)CC2)c1 [Example 4-18, N-[4-[5-[(4-Chlorophenyl)methyl]-1,2,4-oxadiazol-3-yl]phenyl]-3-[(1,1-dioxo-1,4-thiazinan-4-yl)methyl]benzamide]	39.8	82.7	2.51	98.7	15.8	99.2
Cc1oc(-c2ccc(NC(=O)c3ccc(Cl)c(CN4CCS(=O)(=O)CC4)c3)cn2)nc1C1CC1 [Example 5-2, 4-Chloro-N-[6-(4-cyclopropyl-5-methyl-1,3-oxazol-2-yl)pyridin-3-yl]-3-[(1,1-dioxo-1,4-thiazinan-4-yl)methyl]benzamide]	63.1	82.7	2	98.8	7.94	98.1
O=C(Nc1ccc(-c2cnc(C3CC3)o2)cc1)c1cccc(CN2CCS(=O)(=O)CC2)c1 [Example 4-5, N-[4-(2-Cyclopropyl-1,3-oxazol-5-yl)phenyl]-3-[(1,1-dioxo-1,4-thiazinan-4-yl)methyl]benzamide]	158	63.2	7.94	99.9	100	99.7
O=C(Nc1ccc(-c2nc(-c3ccc(COc4ccccc4F)cc3)n[nH]2)cc1)c1cccc(CN2CCS(=O)(=O)CC2)c1 [Example 3-14, 3-[(1,1-Dioxo-1,4-thiazinan-4-yl)methy]-N-[4-[3-[4-[(2-fluorophenoxy)methyl]phenyl]-1H-1,2,4-triazol-5-yl]phenyl]benzamide]	631	50.9	39.8	97.3	251	95.2
